Data from article PMC4030953, “Pyranose Dehydrogenase from Agaricus campestris and Agaricus xanthoderma: Characterization and Applications in Carbohydrate Conversions” (Biomolecules, 2013).

How the values were obtained:
[1] = biological target: T1, AcPDH (Agaricus campestris, UniProt V5NDL4); test: in-gel flavin fluorescence after SDS-PAGE; assay type: binding; conditions: covalent; UV 302 nm
T1 construct: gene pdh1

[2] = biological target: T1, AcPDH; test: spectrophotometric electron acceptor reduction; assay type: biochemical; conditions: apparent, 25 mM D-glucose, pH 8.5, 30 °C
Text: spectrophotometric electron acceptor reduction on AcPDH

[3] = biological target: T2, AxPDH (Agaricus xanthodermus, UniProt V5NC32); test: spectrophotometric electron acceptor reduction; assay type: biochemical; conditions: apparent, 25 mM D-glucose, pH 8.5, 30 °C
T2 construct: gene pdh1
Text: spectrophotometric electron acceptor reduction on AxPDH

T1 sequence (V5NDL4 22-595): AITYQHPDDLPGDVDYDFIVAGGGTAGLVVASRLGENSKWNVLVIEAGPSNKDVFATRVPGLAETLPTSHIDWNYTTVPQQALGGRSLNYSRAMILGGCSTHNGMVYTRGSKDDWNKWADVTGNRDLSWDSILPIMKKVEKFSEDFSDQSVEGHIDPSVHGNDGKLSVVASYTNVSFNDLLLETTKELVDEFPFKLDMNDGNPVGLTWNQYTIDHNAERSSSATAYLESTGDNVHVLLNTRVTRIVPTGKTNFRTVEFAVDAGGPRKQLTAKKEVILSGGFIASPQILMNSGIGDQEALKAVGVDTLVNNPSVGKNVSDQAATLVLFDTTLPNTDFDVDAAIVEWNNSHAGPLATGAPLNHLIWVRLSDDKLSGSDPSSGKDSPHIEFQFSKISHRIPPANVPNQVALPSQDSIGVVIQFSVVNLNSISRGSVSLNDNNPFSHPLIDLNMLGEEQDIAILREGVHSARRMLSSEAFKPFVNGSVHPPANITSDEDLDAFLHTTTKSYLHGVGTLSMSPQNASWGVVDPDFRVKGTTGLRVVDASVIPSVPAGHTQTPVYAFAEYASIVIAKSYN
T2 sequence (V5NC32 26-600): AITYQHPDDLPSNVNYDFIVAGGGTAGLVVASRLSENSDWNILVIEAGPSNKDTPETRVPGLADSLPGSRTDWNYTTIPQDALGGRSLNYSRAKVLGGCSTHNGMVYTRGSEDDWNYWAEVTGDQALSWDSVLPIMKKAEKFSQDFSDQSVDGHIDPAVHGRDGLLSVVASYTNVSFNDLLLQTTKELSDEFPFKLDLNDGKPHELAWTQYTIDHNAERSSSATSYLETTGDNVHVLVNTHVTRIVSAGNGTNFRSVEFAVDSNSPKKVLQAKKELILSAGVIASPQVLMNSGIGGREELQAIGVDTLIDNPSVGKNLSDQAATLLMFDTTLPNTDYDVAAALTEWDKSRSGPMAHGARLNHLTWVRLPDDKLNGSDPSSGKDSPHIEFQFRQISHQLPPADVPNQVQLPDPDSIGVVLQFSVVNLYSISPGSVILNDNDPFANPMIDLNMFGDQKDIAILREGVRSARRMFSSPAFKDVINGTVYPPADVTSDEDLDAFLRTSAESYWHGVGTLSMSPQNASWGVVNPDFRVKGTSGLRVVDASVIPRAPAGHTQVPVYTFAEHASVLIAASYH

| Structure (SMILES) | in-gel flavin fluorescence after SDS-PAGE [1] | Km [2] | Km [3] |
| --- | --- | --- | --- |
| Cc1cc2nc3c(=O)[nH]c(=O)nc-3n(C[C@H](O)[C@H](O)[C@H](O)COP(=O)(O)OP(=O)(O)OC[C@H]3O[C@@H](n4cnc5c(N)ncnc54)[C@H](O)[C@@H]3O)c2cc1C [FAD] | AcPDH and AxPDH showed a bright band under UV-light | – | – |
| F[P-](F)(F)(F)(F)F.[Fe+3].c1cc[cH-]c1.c1cc[cH-]c1 [Fc^+PF6] | – | 1190 ± 170 µM | 30 µM |
